According to patent publication US4994457A, “Antiinflammatory compositions and methods” (Pfizer Inc., priority 1987, dated 1991):
Structures can show the parent of a compound that is named as a salt.

Key:
[1] = tested on: Piroxicam-Induced Gastric Lesions in Rats; assay: Protective effect of disodium 5'-guanylate on piroxicam-induced gastric lesions in rats; type: in vivo, CD strain (Sprague-Dawley), male; conditions: for Lesions/Rat (X +/- SE): mean (SE)
Procedure: (§1) Adult male "specific pathogen free" rats weighing 140-160 grams of the CD strain (Sprague-Dawley) were obtained from Charles River Breeding Laboratories (Kingston, N.Y.). The animals were acclimated for approximately one week and tested when they reached a body weight of 200-225 grams. The rats were fasted for 16 hours and randomized into groups consisting of 10 animals which were normalized with regard to their average body weight.
(§2) Gastric ulcers were induced in the animals by orally dosing them with a single 120 mg/kg dose of piroxicam (ethanolamine salt) in 2 ml. of aqueous 0.1% methylcellulose (pH=6.8). Those animals receiving disodium 5'-guanylate separately received the second drug in an additional 2 ml. of the same medium at about the same time. Six and one-half hours later, the animals were sacrificed by cervical dislocation and autopsied. The stomachs were surgically removed, dissected along the greater curvature and rinsed with cold water. The stomachs were individually scored for both linear and punctate lesions. The total number of lesions was used for scoring purposes. The data obtained from each group of rats was analyzed after calculation of the mean number +/- the standard error of total gastric lesions. The values obtained were also compared to the controls which received only piroxicam by the two-tailed Student's T-Test for non-paired data.

[2] = tested on: Piroxicam Induced Gastric Lesions in Rats; assay: Protective effect of N-acetyl-L-methionine on piroxicam induced gastric lesions in rats; type: in vivo, CD strain (Sprague-Dawley), male; conditions: for Lesions/Rat (X +/- SE): mean (SE)
Procedure: as §1, §2
By the procedure of the preceding Example, the protective effect of the N-acetyl-L-methionine on piroxicam induced gastric lesions in rats was determined.

[3] = tested on: gastric ulcers in rats; conditions: Tanaka et al. 1982, Kunimi et al. 1982; cited from earlier work
[4] = tested on: gastrointestinal ulcers induced by the subcutaneous injection of indomethacin; conditions: Urishidani et al. 1977; cited from earlier work
[5] = tested on: gastric mucosal damage of aspirin solutions in rats; conditions: Lim et al. 1979; cited from earlier work
[6] = stated as background for single daily dosage; cited from earlier work

SMILES: Nc1nc2c(ncn2[C@@H]2O[C@H](COP(=O)(O)O)[C@@H](O)[C@H]2O)c(=O)[nH]1 [Disodium 5'-Guanylate, guanosine 5'-monophosphate]
- reduction of piroxicam-induced gastric lesions ([1]; healthy fasted rat, oral): significantly reduces piroxicam-induced gastric lesions
- Lesions/Rat (X +/- SE) ([1]; oral 1.0 mg/kg, 20 rats, with 120 mg/kg piroxicam ethanolamine salt): 8.1 (0.7) Lesions/Rat
- Lesions/Rat (X +/- SE) ([1]; oral 3.3 mg/kg, 20 rats, with 120 mg/kg piroxicam ethanolamine salt): 5.8 (0.5) Lesions/Rat
- Lesions/Rat (X +/- SE) ([1]; oral 10.0 mg/kg, 30 rats, with 120 mg/kg piroxicam ethanolamine salt): 4.6 (0.8) Lesions/Rat
- Lesions/Rat (X +/- SE) ([1]; oral 33.0 mg/kg, 40 rats, with 120 mg/kg piroxicam ethanolamine salt): 3.9 (0.6) Lesions/Rat

SMILES: CN1C(C(=O)Nc2ccccn2)=C(O)c2ccccc2S1(=O)=O [Ethanolamine Salt of Piroxicam, 4-hydroxy-2-methyl-N-2-pyridinyl-2H-1,2-benzothiazine-3-carboxamide 1,1-dioxide, reference compound]
- Lesions/Rat (X +/- SE) ([1]; control: 120 mg/kg oral ethanolamine salt of piroxicam alone, 40 rats, 6.5 h): 8.3 (0.9) Lesions/Rat
- Lesions/Rat (X +/- SE) ([2]; control: 120 mg/kg oral ethanolamine salt of piroxicam alone, 50 rats): 8.0 (0.8) Lesions/Rat

SMILES: NCCC(=O)N[C@@H](Cc1cnc[nH]1)C(=O)O [L-carnosine]
- prevention of the exacerbation of gastric ulcers by certain antiinflammatory agents [3]: not

SMILES: CSCC[C@H](NC(C)=O)C(=O)O [N-Acetyl-L-methionine, N-acetyl-L-methionine]
- ED50 ([2]; Rattus norvegicus, 6.5 h, oral, 120 mg/kg piroxicam ethanolamine salt, read-out: ED50 (dose of the N-acetylmethionine required to inhibit 50% of control gastric lesions)): 100 to 333 mg/kg
- Lesions/Rat (X +/- SE) ([2]; oral 33 mg/kg, 50 rats, with 120 mg/kg piroxicam ethanolamine salt): 6.9 (0.8) Lesions/Rat
- Lesions/Rat (X +/- SE) ([2]; oral 100 mg/kg, 40 rats, with 120 mg/kg piroxicam ethanolamine salt): 3.9 (0.8) Lesions/Rat
- Lesions/Rat (X +/- SE) ([2]; oral 333 mg/kg, 20 rats, with 120 mg/kg piroxicam ethanolamine salt): 3.5 (0.9) Lesions/Rat

SMILES: CC(=O)NCCC(=O)N[C@@H](Cc1c[nH]cn1)C(=O)O [N-acetyl-L-carnosine, N-(N-acetyl-beta-alanyl)-L-histidine]
- prevention of the exacerbation of gastric ulcers by certain antiinflammatory agents [3]: not

SMILES: CC(=O)NCCC(=O)N[C@@H](Cc1c[nH]cn1)C(=O)O [aluminum salts of N-acetyl-L-carnosine, N-(N-acetyl-beta-alanyl)-L-histidine]
- prevention of the exacerbation of gastric ulcers by certain antiinflammatory agents [3]: prevent the exacerbation of gastric ulcers

SMILES: CC(=O)N[C@@H](CCC(N)=O)C(=O)O [aluminum salts of N-acetyl-L-glutamine, N-acetyl-L-glutamine]
- prevention of the exacerbation of gastric ulcers by certain antiinflammatory agents [3]: prevent the exacerbation of gastric ulcers

SMILES: CSCC[C@H](N)C(=O)O [methionine]
- inhibition of gastrointestinal ulcers [4]: inhibit gastrointestinal ulcers
- effect on gastric mucosal damage of aspirin solutions [5]: beneficial effect

SMILES: CN1C(C(=O)Nc2ccccn2)=C(O)c2ccccc2S1(=O)=O [piroxicam, 4-hydroxy-2-methyl-N-2-pyridinyl-2H-1,2-benzothiazine-3-carboxamide 1,1-dioxide]
- in vivo half-life [6]: long
